Data as given in paper PMC4856769 (Cell Research, 2016).

Target: T1, YEATS domain of YEATS2 (YEATS2 201-332) (Homo sapiens, UniProt Q9ULM3)
T1 sequence (Q9ULM3 201-332): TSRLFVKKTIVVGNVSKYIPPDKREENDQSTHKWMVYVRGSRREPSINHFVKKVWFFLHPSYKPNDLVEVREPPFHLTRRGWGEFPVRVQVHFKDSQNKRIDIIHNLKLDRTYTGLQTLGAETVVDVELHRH
Experiment: ITC binding of histone peptides to the YEATS domain of YEATS2

binding (in words) (ITC, 15°C, wild type YEATS2 201-332) | Molecule | Kd
No binding | ARTKQT ARKST GGK(cr)APRKQLATKAA [H31-25K14cr] | –
– | C/C=C/C(=O)NCCCC[C@H](NC(=O)[C@@H](NC(=O)[C@H](CCCNC(=N)N)NC(=O)[C@H](C)N)[C@@H](C)O)C(=O)N[C@@H](CCC(N)=O)C(=O)N[C@H](C(=O)N[C@@H](C)C(=O)N[C@@H](CCCNC(=N)N)C(=O)N[C@@H](CCCCN)C(=O)N[C@@H](CO)C(=O)N[C@H](C(=O)NCC(=O)NCC(=O)N[C@@H](CCCCN)C(=O)N[C@@H](C)C(=O)O)[C@@H](C)O)[C@@H](C)O [H31-15K4cr] | 121 µM
